Data from US20090054326A1 (NASTECH PHARMACEUTICAL COMPANY INC., priority 2005, published 2009).

What was measured:
aminopeptidases = conditions: cited from earlier work
[1] = tested on: normal, human-derived tracheal/bronchial epithelial cells (EpiAirway Tissue Model); test: Transepithelial electrical resistance (TER) in EpiAirway tissue model; type: cell-based; conditions: after one hour exposure at 37° C.; Examples 1-4
Description: Samples were evaluated in an in vitro tissue model. […] Inserts were feed for each day of recovery.
TER measurements were accomplished using the Endohm-12 Tissue Resistance Measurement Chamber connected to the EVOM Epithelial Voltohmmeter (World Precision Instruments, Sarasota, Fla.) with the electrode leads. The electrodes and a tissue culture blank insert were equilibrated for at least 20 minutes in MatTek medium with the power off prior to check calibration. The background resistance was measured with 1.5 ml Media in the Endohm tissue chamber and 300 μl Media in the blank insert. The top electrode was adjusted so that it was close to, but not making contact with, the top surface of the insert membrane. Background resistance of the blank insert was about 5-20 ohms. For each TER determination, 300 μl of MatTek medium was added to the insert followed by placement in the Endom chamber. Resistance was expressed as (resistance measured−blank)×0.6 cm^2.

Compound	more effective in enzyme inhibition than bestatin (aminopeptidases; relative to bestatin)	more effective in enzyme inhibition than puromycin (aminopeptidases; relative to puromycin)	change in TER [1]
CC(C)CC(N)B(O)O (stereo not drawn) [boro-leucine]	more than 100 times	more than 1000 times	–
Triton X	–	–	essentially a complete reduction in TER
